Test results reported in ChEMBL document CHEMBL1145684, “New Guaiane Metabolites from the Caribbean Gorgonian Coral, Pseudopterogorgia americana” (J Nat Prod, 1997).
In brackets after ≈: the same amount, converted by molar mass.

Assays:
HeLa = assay: Cytotoxicity against human HeLa cells; format: functional; conditions: read-out: ED50 (the source's name)
[1] = Cytotoxicity against chinese hamster CHOK1 cells; format: cell-based, Cricetulus griseus; conditions: CHO-K1 cells, read-out: ED50 (the source's name)
KM12 = assay: Cytotoxicity against human KM12 cells; format: functional, cell-based
MOLT-4 = assay: Cytotoxicity against human MOLT4 cells; format: functional, cell-based

| Compound | EC50 (HeLa) [µg/mL] | CC50 [1] [µg/mL] | IC50 (KM12) [µg/mL] | IC50 (MOLT-4) [µg/mL] |
| --- | --- | --- | --- | --- |
| CC1=C2CC3=C(C)C(=O)O[C@H]3C[C@@H](C)[C@@H]2CC1 [AMERICANOLIDE D] | 30 (≈ 129 µM) | 100 (≈ 430 µM) | 0.1 (≈ 0.43 µM) |  |
| CO[C@]12C[C@@H](C)[C@]34O[C@H]3C[C@@]3(C)O[C@@]43CC1=C(C)C(=O)O2 [METHOXYAMERICANOLIDE A] |  |  |  | 0.1 (≈ 0.342 µM) |
